Several values for one entry are separate records, joined by “and”; a condition that tells them apart may be missing. Equal values may be shown once. After the bases stand the sugars from the 5' end (letter, count) and the backbone: PS all phosphorothioate, else s phosphorothioate and o phosphodiester by linkage. Methylation of C is not given here. e = 2'-O-(2-methoxyethyl) (MOE); k = constrained ethyl (cEt); d = 2'-deoxy (DNA)
Molecular target: APOL1
Settings: ASO

| Sequence | target mRNA inhibition (A431, 2 µM) | target mRNA inhibition (A431, 0.0625 µM) | target mRNA inhibition (A431, 0.25 µM) | target mRNA inhibition (A431, 1 µM) | target mRNA inhibition (A431, 0.04 µM) | target mRNA inhibition (A431, 0.0156 µM) |
| --- | --- | --- | --- | --- | --- | --- |
| CACATCATTGGGTTAT (sugars kkddddkekekkdddd, PS) | 34% |  |  |  |  |  |
| TCCTGGGCGGCGACAA (sugars k4 d9 k3, PS) |  | 46% | 74% | 85% |  |  |
| TTCTCATGGTACAGGA (sugars k3 d4 k3 e1 d5, PS) | 44% |  |  |  |  |  |
| GTATTTCTTGATGTGG (sugars kekddddeekkddddd, PS) | 99% |  |  | 99% | 70% |  |
| CAGTCAGCAGGAGTAG (sugars k4 d9 k3, PS) |  | 30% | 54% | 65% |  |  |
| ACGCAATGCTGACTTG (sugars kkdddddkekeddddd, PS) | 89% |  |  |  |  |  |
| CAGATGTGTTTAGGCA (sugars k4 d9 k3, PS) |  | 78% | 93% | 96% |  |  |
| GCAGTTTTGTAAGTGC (sugars k3 d4 k3 e1 d5, PS) | 76% |  |  |  |  |  |
| GAGTCATTTGCTAGGT (sugars k4 d9 k3, PS) |  | 78% | 89% | 92% |  |  |
| CTAATTTTCTGACTGT (sugars kkddddkekekkdddd, PS) | 71% |  |  |  |  |  |
| CTTTAAACTCAGGTGA (sugars kddddkekekeddddd, PS) | 70% |  |  |  |  |  |
| ACGCAATGCTGACTTG (sugars kdddddkekekddddd, PS) | 71% |  |  |  |  |  |
| GGAAATGAACGCAATG (sugars k4 d9 k3, PS) |  | 37% | 71% | 87% |  |  |
| GAACGCAATGCTGACT (sugars k2 d4 e3 k2 d5, PS) | 95% | 42% | 77% | 92% |  | 20% |
| GTTATGAAATTATTGG (sugars kkddddekekeddddd, PS) | 68% |  |  |  |  |  |
| CCTTATGCTTACTCCA (sugars k4 d9 k3, PS) |  | 68% | 82% | 93% |  |  |
| CTTTATACCAGTGTCT (sugars kkkddddkdkdkdddd, PS) | 87% |  |  |  |  |  |
| GTTTTATGGAGTCATT (sugars k4 d9 k3, PS) |  | 51% and 34% | 78% and 70% | 92% and 84% |  |  |
| AGCTTTAAACTCAGGT (sugars kkddddkekekddddd, PS) | 87% |  |  |  |  |  |
| GTTTTGTAAGTGCAAC (sugars k2 d4 e3 k2 d5, PS) | 83% |  |  |  |  |  |
| AGTATTGCCAGCTAAG (sugars k2 d4 e3 k2 d5, PS) | 86% |  |  |  |  |  |
| GAAGATTGGCTCTGGC (sugars kddddkekekeddddd, PS) | 21% |  |  |  |  |  |
| ATTCTCATGGTACAGG (sugars kkkddddkekeddddd, PS) | 94% | 41% | 73% | 83% |  | 15% |
| TTTATACCAGTGTCTT (sugars k2 d4 e4 k2 d4, PS) | 89% |  |  |  |  |  |
| GGTTGTCCAGAGCTTT (sugars k4 d9 k3, PS) |  | 100% | 84% | 91% |  |  |

| Sequence | target mRNA inhibition (A431, 2 µM) | target mRNA inhibition (A431, 0.0625 µM) | target mRNA inhibition (A431, 0.25 µM) | target mRNA inhibition (A431, 1 µM) | target mRNA inhibition (A431, 0.04 µM) | target mRNA inhibition (A431, 0.0156 µM) |
| --- | --- | --- | --- | --- | --- | --- |
| CAGCTATGGAAATGCC (sugars k4 d9 k3, PS) |  | 34% | 58% | 79% |  |  |
| TTCATGATCATTTGTC (sugars k4 d9 k3, PS) |  | 47% | 68% | 81% |  |  |
| GGGAATTATGGAATTG (sugars k4 d9 k3, PS) |  | 48% and 59% | 70% and 67% | 80% and 77% |  |  |
| TTGTAAGTGCAACCAA (sugars kkddddkekekkdddd, PS) | 54% |  |  |  |  |  |
| ACACATCATTGGGTTA (sugars kkddddekekeddddd, PS) | 64% |  |  |  |  |  |
| ATCAGATGGGTACTTC (sugars k2 d4 e3 k2 d5, PS) | 67% |  |  |  |  |  |
| AGATGTGTTTAGGCAT (sugars k4 d9 k3, PS) |  | 54% | 85% | 95% |  |  |
| TATTTCTTGATGTGGT (sugars kkddddekekeddddd, PS) | 99% | 66% | 90% | 98% and 96% | 53% and 50% | 36% |
| TTTGTAAGTGCAACCA (sugars k3 d5 k3 d5, PS) | 98% |  |  |  |  |  |
| TTATATTTGATCCTCA (sugars kkddddekekeddddd, PS) | 96% |  |  |  |  |  |
| TTATACCAGTGTCTTC (sugars kdddddkekekddddd, PS) | 82% |  |  |  |  |  |
| TTTAAACTCAGGTGAC (sugars kddddkekekeddddd, PS) | 43% |  |  |  |  |  |
| TCATTAGTGCTATAGA (sugars k4 d9 k3, PS) |  | 25% | 71% | 86% |  |  |
| AATATCAGAGTGTACC (sugars k4 d9 k3, PS) |  | 51% | 73% | 84% |  |  |
| CATTCAGAATTTCCAC (sugars kddddkekekeddddd, PS) | 58% |  |  |  |  |  |
| TTTATACCAGTGTCTT (sugars kkkddddkekekdddd, PS) | 76% |  |  |  |  |  |
| GTATTTCTTGATGTGG (sugars k3 d4 k3 e1 d5, PS) | 98% |  |  |  |  |  |
| TCTATTAGAGGGCTAG (sugars kkdddddkekeddddd, PS) | 72% |  |  |  |  |  |
| TTCTCATGGTACAGGA (sugars kkddddekekeddddd, PS) | 79% |  |  |  |  |  |
| TATTTCTTGATGTGGT (sugars k3 d4 k3 e1 d5, PS) | 99% | 78% | 95% | 98% |  | 45% |
| TTCTATTAGAGGGCTA (sugars kddddkekekeddddd, PS) | 34% |  |  |  |  |  |
| GTTCAAAAGCAGCATT (sugars kkkddddkekekdddd, PS) | 24% |  |  |  |  |  |
| TAATTCTATTAGAGGG (sugars kkddddekekeddddd, PS) | 46% |  |  |  |  |  |
| GCTTTAAACTCAGGTG (sugars kkkddddkekeddddd, PS) | 82% |  |  |  |  |  |
| AGTATTGTTTTTGTGG (sugars kkddddkdkdkddddd, PS) | 72% |  |  |  |  |  |

| Sequence | target mRNA inhibition (A431, 2 µM) | target mRNA inhibition (A431, 0.0625 µM) | target mRNA inhibition (A431, 0.25 µM) | target mRNA inhibition (A431, 1 µM) | target mRNA inhibition (A431, 0.04 µM) | target mRNA inhibition (A431, 0.0156 µM) |
| --- | --- | --- | --- | --- | --- | --- |
| ACACATCATTGGGTTA (sugars kdddddkekekddddd, PS) | 47% |  |  |  |  |  |
| TTGATGAGTAGGTGAG (sugars k4 d9 k3, PS) |  | 72% | 81% | 85% |  |  |
| TTCAGAATTTCCACTA (sugars k4 d9 k3, PS) |  | 40% | 67% | 87% |  |  |
| TATTTCTTGATGTGGT (sugars kkddddkekekddddd, PS) | 97% | 77% | 92% | 96% |  | 44% |
| AGCTTTAAACTCAGGT (sugars kkddddkdkdkddddd, PS) | 86% |  |  |  |  |  |
| TTTGTAAGTGCAACCA (sugars kkkddddkdkdkdddd, PS) | 71% |  |  |  |  |  |
| GAATTATGGAATTGCA (sugars k4 d9 k3, PS) |  | 59% | 82% | 92% |  |  |
| TCAACACATCATTGGG (sugars k4 d9 k3, PS) |  | 38% | 73% | 90% |  |  |
| CGCAATGCTGACTTGG (sugars kkdddddkekeddddd, PS) | 96% | 44% | 80% | 93% |  | 11% |
| GAAGATTGGCTCTGGC (sugars kekddddeekkddddd, PS) | 87% |  |  |  |  |  |
| TCAGATGGGTACTTCT (sugars k4 d9 k3, PS) |  | 38% | 66% | 83% |  |  |
| AACTTTACCTCACCCT (sugars k4 d9 k3, PS) |  | 35% | 68% | 88% |  |  |
| TTGTAAGTGCAACCAA (sugars k3 d4 k3 e1 d5, PS) | 78% |  |  |  |  |  |
| GTGTATTTCTTGATGT (sugars k2 d4 e3 k2 d5, PS) | 96% | 51% | 79% | 91% |  | 18% |
| ACCCTTTTGGCACCTT (sugars k4 d9 k3, PS) |  | 49% | 79% and 76% | 92% and 89% |  |  |
| ATTCTATTAGAGGGCT (sugars kkddddekekeddddd, PS) | 25% |  |  |  |  |  |
| TATTTCTTGATGTGGT (sugars kkddddkdkdkddddd, PS) | 97% | 71% | 91% | 96% |  | 40% |
| TTTGTAAGTGCAACCA (sugars kkdddddkekeddddd, PS) | 92% | 46% | 78% | 91% |  | 36% |
| TTATATTTGATCCTCA (sugars kkddddkdkdkddddd, PS) | 96% | 44% | 76% | 93% |  | 15% |
| GCTATGGAAATGCCAA (sugars k4 d9 k3, PS) |  | 28% | 61% | 81% |  |  |
| GATTCTGTGTGCTCAC (sugars k4 d9 k3, PS) |  | 46% | 72% | 87% |  |  |
| ATTCTCATGGTACAGG (sugars k3 d5 k3 d5, PS) | 97% |  |  |  |  |  |
| GGGTTATGAAATTATT (sugars kkddddekekeddddd, PS) | 88% |  |  |  |  |  |
| TCAGCTAAGACCAGTG (sugars k4 d9 k3, PS) |  | 53% | 78% | 89% |  |  |
| TTTGTAAGTGCAACCA (sugars kkddddkdkdkddddd, PS) | 99% |  |  |  |  |  |
